Experimental data reported in patent publication US20140099354A1, “BIOPASSIVATING MEMBRANE STABILIZATION BY MEANS OF NITROCARBOXYLIC ACID-CONTAINING PHOSPHOLIPIDS IN PREPARATIONS AND COATINGS” (priority 2011, published 2014).

Key:
TRPV1, 2 and 4, TRPA1 = assay: Inducible ion current of TRP receptors in Xenopus oocytes (voltage clamp); assay type: cell-based, rat; details: 50 mmol/l, 10 and 60 minutes
Experimental: An established in-vitro model of Xenopus oocytes (Dascal N, 1987 The use of Xenopus oocytes. CRC critical reviews in biochemistry 22, 317-387) was used to study the influence of incubation with PL on ion channels regulated by membrane receptors. Defolliculized oocytes were transfected with cRNA (rat) of TRPV1, 2 and 4, as well as of TRPA1, stored in tissue culture plates and incubated in culture medium (ND 96) at 15° C. under constant motion in the incubator for 7 to 10 days.
Induced leakage currents through activation of the TRP receptors was determined by means of double electrode voltage-clamp technique (Ahern G P, Brooks I M, Miyares R L &Wang X B, 2005, Extracellular cations sensitize and gate capsaicin receptor TRPV1 modulating pain signalling. J Neurosci 25, 5109-5116). Ooocytes were probed with borosilicate glass capillaries (Clark) and connected to a feedback amplifier (Gene clamp Amplifier, Axon instruments). The membrane potential of oocytes was clamped to −60 or −90 mV. The presence of a directive […] current was compared to non-transfected controls. The investigations were performed in a miniature organ bath in calcium-free buffered (Hepes, pH 7.3) NaCl solution. The TRPV1 receptor excitation was initiated by rapidly changing of the bath solution against a capsaicin solution (10 μmol). Results of non-pretreated oocytes were used for normative comparison of subsequent measurements of incubatesd cells. Investigations with incubated cells were carried out in the same way for oocytes transfected with the TRPV2, and TRPV4 and TRPA1 receptors, wherein the receptor agonists cannabidiol (10 μmol) and 4α-PDD (4α-phorbol 12,13-didecanoate, 50 μmol) and innamaldehyde (50 μmol) were used instead of capsaicin.

[1] = Tissue response to coated silicone implants in vivo after bleomycin; parameters: species or system Wistar rats; details: silicone cushions, subcutaneous, 7 to 90 days
Experimental: Induction of fibrotic tissue production by connective tissue activation as a consequence of implantation of foreign material was examined in an in-vivo animal model. As implant materials, sterile silicone cushions having a diameter of 1 cm were used.
In male Wistar rats (190-240 g) that were fed and housed under identical conditions for one week, general anaesthesia was performed by intramuscular injection of 0.008 mL/100 g ketamine and 0.004 mL/100 g xylocaln chloride 2%. Then the back of the animals was shaved, sterilized and infiltrated with xylocalne chloride. A paravertebral incision was made on both sides with a length of 1.5 cm followed by preparation of the subcutaneous tissue, so that on both sides approx. 2×2 cm cavities were preformed. Hemostasis was achieved by cauterization, if necessary. Then balls of cotton saturated with Bleomycin (cell-pharm GmbH, Hannover, Germany: 1% in 0.9% NaCl solution) were inserted into the cavities for 3 minutes and then removed. Without rinsing the cavities, the implants coated with a nitrated phospholipid were inserted into the cavity on the left side and the implants coated with natural phospholipid into the cavity on the right side. Thereafter, a layer by layer wound closure was performed and a sterile adhesive bandage was applied.
The animals were kept according to standard conditions for 7, 14, 30, 60 and 90 days. At any study time endpoint, two animals were euthanized. After death the well visible and palpable implants were removed using en-block resection technique. The resected specimens were fixed and embedded in paraffin. Then they were cut in half and the liquid silicone was removed. The specimens were embedded again and cut into thin slices which were stained with H & E and Sirius red, and evaluated by light microscopy. Evaluation was done according to the following criteria:
A1: none; A2: occasional monocytic cells or lymphocytes; A3: moderate numbers or groups of monocytic cells or lymphocytes; A4: dense infiltration of monocytes, eosinophils, or giant cells.
B1: none; B2: collagen-rich layer around the implant; B3: thick (>1 mm) and dense collagen-rich tissue formation around the implant.
In every 10th serial section 10 fields of view uniformly distributed over the circumference of the implant were evaluated and the herein predominant expression was assigned to an event table. In total, 200 fields of view were analyzed per implant

sciatic nerve = assay: Viability of cryopreserved nerve grafts (Annexin-V staining, FACS); assay type: cell-based, rats; details: 100 mmolar solution 1 hour, −30° C. 72 hours
Experimental: The sciatic nerve was prepared and sectured in anesthetized rats. The nerve pieces were freed from connective tissue and divided into 3 parts. Specimens were placed in culture DMEM medium containing low a concentration of glucose (1 g/L) with L-glutamine (PAA, Pasching Austria) for 24 hours. […] Nerve specimens from the same animals that received no pretreatment served as controls. After incubation, the specimens were cultured for 24 hours. In a further control group, specimens were cryopreserved without any pretreatment. The specimens were covered with a sterile gauze pad moistened with culture medium. Thereafter the temperature was gradually cooled to −30° C. After 72 hours, the nerve pieces were gradually rewarmed to 37° C. After this, renewed culturing was done for 48 hours. The nerve pieces were dissected enzymatically then (collagenase A and D, Roche, Mannheim, Germany) followed by a mechanical separation through multiple uptake and release in a glass pipette. The isolated cells were washed and marked with a living/death staining (Annexin-V-Fluos staining Kit, Roche Diagnostics, Mannheim, Germany) and quantified using FACS analysis. The number of living cells identified was set in relation to the total cells count.

[2] = Abrasion stability and traction work load of coated balloon catheters; assay type: physicochemical
Experimental: Balloon catheters were coated by means of the Langmuir-Schaefer procedure where the balloon segment was aligned longitudinally and coaxial to the solution surface, dipping into the liquid for approx. 1 mm over the entire length. Then the catheter was slowly rotated around its axis 5 times. Phospholipids were dissolved at a concentration of 3 mmol in an ion-free aqueous solution at 50° C. The solution was cooled and given to the coating solution then. In case of incomplete dissolution of the phospholipids or if they separated when cooled, DMSO was added at a concentration of up to 20 vol.-%, preferably up to 10 vol.-%. After coating, the catheters were vacuum dried for 8 hours in order to remove residual solvent.
The tubing was filled with a 10% human albumin solution at a temperature of 35° C. The cable system, which had previously been brought through the tubing was connected to the catheter tip and tracked outside the tubing by reversing pulleys, which allowed exactly vertically traction of the cable that was connected to a motorized winch. The winch was mounted on a digital precision balance. The catheters mounted in this manner were pulled through the tubing system and the weight changes measured by the balance, which represented the traction work load achieved for the passage of the catheter, was recorded continuously. These readings were integrated over time. The resultant values allow estimation of the total shear force that occurred during the passage of the catheter through the tubing system.

ovarian tissue strips = assay: Cryopreservation of ovarian tissue strips: intact follicles; details: liquid nitrogen 14 days, cultured 14 days
[3] = Transisomerization of unsaturated fatty acids in coatings on balloon catheters (FTIR); assay type: physicochemical
From the text: The natural phospholipids POPC and SLPE, as well as the analogous nitrated phospholipids as shown in example C(PNOPC) and […]), as well as the phospholipids according to examples […], and S as a mono substance and as a combination of the native phospholipids and the corresponding nitro-carboxylic acid (s)-containing phospholipids mixed in a ratio of 1:1 were used for this investigation. Balloon catheters were coated by means of the Langmuir-Schaefer procedure where the balloon segment was aligned longitudinally and coaxial to the solution surface, dipping into the liquid for approx. 1 mm over the entire length. Then the catheter was slowly rotated around its axis 5 times. […] The solution was cooled and given to the coating solution then. In case of incomplete dissolution of the phospholipids or if they separated when cooled, DMSO was added at a concentration of up to 20 vol.-%, preferably up to 10 vol.-%. After coating, the catheters were vacuum dried for 8 hours in order to remove residual solvent. The abrasion or loss of coating layers was determined by weighing the catheter before and after coating as well as after the mechanical stability test in the tubing system as described above using a high precision balance. In order to examine the long-term stability of the coating, catheters coated with phospholipids were sealed with polyethylene glycol 1000 (Roth, Germany). For that purpose PEG 1000 was melted and mixed with a 10% ethanol solution at 50° C. A portion of the phospholipid-coated balloon catheter was coated by means of dip-coating in this PEG solution at 50° C., and dried thereafter for 8 hours. Stability of cis-conformity of unsaturated fatty acids of the phospholipids investigated was determined after heat treatment at 60° C. for three hours in a heating cabinet. After 24 hours and after 2 months the phospholipids coated on the balloon surface were detached and analyzed. Detachment was carried out in 50 ml of a chloroform:methanol mixture (3:1, v: v). A 10 μl aliquot was used for a FTIR spectroscopy. For this purpose the samples were dropped on a ZnSe ATR crystal and then the solvent was evaporated. Degree of transisomerization was determined using the integral of intensity of proton resonance in comparison to that measured from a cis configuration of the reference substances. Measurements were performed 24 hours after coating, heat treatment and after 2 months of storage at 25° C. under sterile room air conditions.

| Molecule | inducible membrane channel activity of TRP channels (TRPV1, 2 and 4, TRPA1) | biocompatibility of coated implants compared to natural PLs [1] | proportion of living cells relative to non-frozen control (sciatic nerve) [%] | mechanical removal of coating substance and workload to pull the catheter through PTFE tubing [2] | rate of intact follicles relative to the control group (ovarian tissue strips) [%] | other results |
| --- | --- | --- | --- | --- | --- | --- |
| CCCCCCCC/C=C(\CCCCCCCC(=O)OC[C@H](COP(=O)(O)OCCN)OC(=O)CCCCCCC/C(=C\CCCCCCCC)[N+](=O)[O-])[N+](=O)[O-] [Example D, 1,2-di-(9-nitrooleoyl)-sn-3-glycero-phosphatidylethanolamine] | significant decrease of inducible membrane channel activity | improved biocompatibility of implants several-fold | 89 | Very similar results |  |  |
| CCCCCCCCC=C(CCCCCCCC(=O)OC[C@H](COP(=O)(O)OC[C@H](N)C(=O)O)OC(=O)CCCCCCCC(=CCCCCCCCC)[N+](=O)[O-])[N+](=O)[O-] [Example E, 1,2-di-(9-nitrooleoyl)-sn-3-glycerophosphatidylserine] | significant decrease of inducible membrane channel activity |  |  | Very similar results |  |  |
| 1-stearoyl-2-(10-nitrolinoleoyl)-sn-3-glycerophosphocholine and 1-stearoyl-2-(9-nitrolinoleoyl)-sn-3-glycerophosphocholine [Example P2] |  | improved biocompatibility of implants several-fold | 82 | Very similar results | 85 |  |
| 1,2-di-(9-nitrolinoleoyl)-sn-3-glycerophosphocholine, 1,2-di-(10-nitrolinoleoyl)-sn-3-glycerophosphocholine, 1-(9-nitrolinoleoyl)-2-(10-nitrolinoleoyl)-sn-3-glycerophosphocholine and 1-(10-nitrolinoleoyl)-2-(9-nitrolinoleoyl)-sn-3-glycerophosphocholine [Example N8] |  | improved biocompatibility of implants several-fold |  |  |  |  |
| CCCCCCCC/C=C(\CCCCCCCC(=O)O[C@H](COC(=O)CCCCCCCCCCCCCCC)COP(=O)([O-])OCC[N+](C)(C)C)[N+](=O)[O-] [Example P8, 1-palmitoyl-2-(E-9-nitrooleoyl)-sn-3-glycerophosphocholine] | significant decrease of inducible membrane channel activity |  |  |  | 96 |  |
| CCCCCCCC/C=C(\CCCCCCCC(=O)OC[C@H](COP(=O)(O)O)OC(=O)CCCCCCC/C(=C\CCCCCCCC)[N+](=O)[O-])[N+](=O)[O-] [Example G, 1,2-di-(9-nitrooleoyl)-sn-3-glycerophosphate] |  | improved biocompatibility of implants several-fold |  | Very similar results |  |  |
| CC/C=C(\C/C=C\C/C=C\CCCCCCCC(=O)O[C@H](COC(=O)CCCCCCC/C=C\C/C=C\CCCCC)COP(=O)([O-])OCC[N+](C)(C)C)[N+](=O)[O-] [Example P12, 1-linoleoyl-2-(E-15-nitro-α-linolenoyl)-sn-3-glycerophosphocholine] |  | improved biocompatibility of implants several-fold |  |  | 91 |  |
| CCCCC/C=C\C/C=C(\CCCCCCCC(=O)O[C@H](COC(=O)CCCCCCCCCCCCCCCCC)COP(=O)(O)OCCN)[N+](=O)[O-] [Example R, 1-Stearoyl-2-(E-9-nitrolinoleoyl)-sn-3-glycerophosphatidylethanolamine] |  | improved biocompatibility of implants several-fold | 75 |  |  | proportion of trans-fatty acids ([3]; after heat treatment (60° C., three hours)): 28%; degree of transisomerization ([3]; coatings after 2 months): 32%; degree of transisomerization ([3]; top coating with PEG, after 2 month): 33%; proportion of living cells relative to non-frozen control (sciatic nerve; listed as SNLPE): 80% |
